These results are taken from patent US20060069132A1, “Azolecarboxamide herbicides” (priority 2004, published 2006).

Structures are written as SMILES. Where two headings read alike, the source gives them in different places.

In experiment [1] the test system is rice. As to the kind of experiment: Test B pre-/postemergence herbicide test. The class given is in vivo, Oryza sativa. The following applies: for plant injury at 125 g/ha / plant injury at 500 g/ha: Oryza sativa, pre-emergence, 336 h. A digest of the protocol:
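Visual rating, 0 (no effect) to 100 (complete control), versus untreated controls after 13–15 d in greenhouse. Pre- and postemergence applications (postemergence plants 2–18 cm, 1–4 leaves); flooded paddy arm at 2-leaf stage. Compounds in non-phytotoxic solvent plus surfactant.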

Experiment [2] deals with large crabgrass. In words: Test A pre-/postemergence herbicide test. The class given is in vivo, Digitaria sanguinalis. As to conditions: for pest or weed control at 500 g/ha / pest or weed control at 2000 g/ha: Digitaria sanguinalis, 240 h. A digest of the protocol:
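Seeds sown in sandy loam received a preemergence directed soil spray of compound in non-phytotoxic solvent with surfactant; postemergence plants (2–10 cm, one- to two-leaf stage) were sprayed to runoff at the same time. After ~10 days in greenhouse, injury was rated visually versus untreated controls (0 = no effect, 100 = complete control).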

Experiment [3] relates to barnyardgrass. In words: Test C flooded paddy test. The class given is in vivo, Echinochloa crus-galli. The following applies: for Plant response rating, Barnyardgrass / pest or weed control at 500 g/ha: 500 g ai/ha, visual rating after 12 to 14 days; for pest or weed control at 62 g/ha / pest or weed control at 125 g/ha / pest or weed control at 250 g/ha / pest or weed control at 500 g/ha: Echinochloa crus-galli; for pest or weed control at 62 g/ha / pest or weed control at 125 g/ha / pest or weed control at 250 g/ha: read-out: Barnyardgrass plant response rating; for pest or weed control at 500 g/ha: read-out: Plant response rating, Barnyardgrass. A digest of the protocol: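 Scoring by eye, 12–14 days post-treatment, greenhouse-held plants vs. controls; 0 no effect, 100 complete control. Sprayed at 1–4 leaves (2–18 cm); paddy barnyardgrass at 2 leaves, flooded.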

[4] abbreviates: 125 g ai/ha, 0 = no effect, 100 = complete control, preemergence.
Where [5] appears, read: 500 g ai/ha, visual rating, 0 = no effect, 100 = complete control, preemergence.
[6] abbreviates: Postemergence, 500 g ai/ha, 0 to 100 scale, 0 no effect, 100 complete control.
The mark [7] stands for this setting: Postemergence, 2000 g ai/ha, 0 to 100 scale, 0 no effect, 100 complete control.
Where [8] appears, read: Preemergence, 2000 g ai/ha, visual rating, 0 to 100 scale (0 no effect, 100 complete control).
The mark [9] stands for this setting: preemergence, 500 g ai/ha, visual injury, 0 to 100 scale (0 no effect, 100 complete control).
Where [10] appears, read: 62 g ai/ha, scale 0 to 100 (0 no effect, 100 complete control).
The mark [11] stands for this setting: 125 g ai/ha, scale 0 to 100 (0 no effect, 100 complete control).
[12] abbreviates: 250 g ai/ha, scale of 0 to 100, 0 is no effect, 100 is complete control.
Setting [13] is: scale 0 to 100 (0 no effect, 100 complete control).
Setting [14] is: 125 g ai/ha, 0 = no effect, 100 = complete control, read-out: Rice plant response rating (0 to 100 scale).
[15] abbreviates: 500 g ai/ha, visual rating, 0 = no effect, 100 = complete control, read-out: Plant response rating, Rice.
[16] abbreviates: post-emergence, Postemergence, 500 g ai/ha, 0 to 100 scale, 0 no effect, 100 complete control, read-out: Crabgrass, Large plant response rating.
Setting [17] is: post-emergence, Postemergence, 2000 g ai/ha, 0 to 100 scale, 0 no effect, 100 complete control, read-out: Plant response rating, Crabgrass, Large.
Setting [18] is: pre-emergence, Preemergence, 2000 g ai/ha, visual rating, 0 to 100 scale (0 no effect, 100 complete control), read-out: Crabgrass, Large plant response rating.
[19] abbreviates: preemergence, 125 g ai/ha, 0 to 100 scale, 0 is no effect, 100 is complete control.
Setting [20] is: Preemergence, 500 g ai/ha, visual rating, 0 to 100 scale (0 no effect, 100 complete control).
[21] abbreviates: 125 g ai/ha, scale of 0 to 100, 0 is no effect, 100 is complete control.

`CCn1nc(C(C)(C)C)cc1C(=O)Nc1cccc(OC(C)C)c1` [Compound 273]: in experiment [1] (setting [4]), the “Rice plant response rating (0 to 100 scale)” value is on record as 0. Also, the “Plant response rating, Rice” value in experiment [1] (setting [5]) was found to be 40. The “Crabgrass, Large plant response rating” value in experiment [2] (setting [6]) amounted to 25; in experiment [2] (setting [8]), 100; in experiment [2] (setting [9]) it was 75. The “Plant response rating, Crabgrass, Large” value in experiment [2] (setting [7]) is 65. Also, the “Barnyardgrass plant response rating” value in experiment [3] (setting [10]) is on record as 20; in experiment [3] (setting [11]), 40; in experiment [3] (setting [12]), 60. Also, the “Plant response rating, Barnyardgrass” value in experiment [3] (setting [13]) turned out to be 70.
Turning to `CCn1nc(C(C)(C)C)cc1C(=O)Nc1cccc(C(=O)N2CC=CC2)c1` [Compound 286], the “Rice plant response rating (0 to 100 scale)” value in experiment [1] (setting [4]) is given as 30. The “Plant response rating, Rice” value in experiment [1] (setting [5]) worked out at 80. Moreover, the “Crabgrass, Large plant response rating” value is recorded as 20 in experiment [2] (setting [6]), 70 in experiment [2] (setting [8]) and 15 in experiment [2] (setting [9]). Also, the “Plant response rating, Crabgrass, Large” value in experiment [2] (setting [7]) worked out at 25. The “Barnyardgrass plant response rating” value in experiment [3] (setting [10]) was found to be 40; in experiment [3] (setting [11]), 55; in experiment [3] (setting [12]), 70. For the same compound, in experiment [3] (setting [13]), the “Plant response rating, Barnyardgrass” value is on record as 80.
Consider `CCNC(=O)c1cc(NC(=O)c2cn(C(C)(C)C)nc2CC)ccc1F` [Compound 241, 1-(1,1-dimethylethyl)-3-ethyl-N-[3-[(ethylamino)carbonyl]-4-fluorophenyl]-1H-pyrazole-4-carboxamide], for which the plant injury at 125 g/ha in experiment [1] (setting [14]) came out at 0%. Also, the plant injury at 500 g/ha in experiment [1] (setting [15]) worked out at 80%. In addition, in experiment [3] (setting [10]), the pest or weed control at 62 g/ha stood at 0%. Besides, the pest or weed control at 125 g/ha in experiment [3] (setting [11]) stood at 0%. Moreover, the pest or weed control at 250 g/ha in experiment [3] (setting [12]) came out at 0%. Also, the pest or weed control at 500 g/ha in experiment [3] (setting [13]) was determined as 30%.
Turning to `CCOC(=O)c1ccc(F)c(NC(=O)C2CC(C(C)(C)C)=NN2CC)c1` (stereo not shown) [Compound 267, ethyl 3-[[[3-(1,1-dimethylethyl)-1-ethyl-4,5-dihydro-1H-pyrazol-5-yl]carbonyl]amino]-4-fluorobenzoate], the plant injury at 125 g/ha in experiment [1] (setting [14]) was 20%. For the same compound, the plant injury at 500 g/ha in experiment [1] (setting [15]) amounted to 40%. The pest or weed control at 500 g/ha in experiment [2] (setting [16]) stood at 45%; in experiment [2] (pre-emergence, preemergence, 500 g ai/ha, visual injury, 0 to 100 scale (0 no effect, 100 complete control), read-out: Crabgrass, Large plant response rating) it was 15%. Further, the pest or weed control at 2000 g/ha in experiment [2] (setting [17]) came to 75%; in experiment [2] (setting [18]), 90%.
Regarding `CCn1nc(C(C)(C)C)cc1C(=O)Nc1cccc(C(=O)NOC)c1` [Compound 67], the “Plant response rating, Rice” value in experiment [1] (setting [19]) is listed as 0. Moreover, the “Plant response rating, Crabgrass, Large” value in experiment [2] (setting [6]) and in experiment [2] (setting [7]) was 20 in each case. Also, the “Crabgrass, Large plant response rating” value in experiment [2] (setting [20]) came out at 15; in experiment [2] (Preemergence, 2000 g ai/ha, 0 to 100 scale, 0 no effect, 100 complete control), 55. Besides, the “Barnyardgrass plant response rating” value is 0 in experiment [3] (setting [10]), 0 in experiment [3] (setting [21]) and 10 in experiment [3] (setting [12]). Besides, the “Plant response rating, Barnyardgrass” value in experiment [3] (setting [13]) is given as 25.
`CCn1nc(C(C)(C)C)cc1C(=O)Nc1ccc(F)c(C(=O)N(C)C)c1` [Compound 236, N-[3-[(dimethylamino)carbonyl]-4-fluorophenyl]-3-(1,1-dimethylethyl)-1-ethyl-1H-pyrazole-5-carboxamide]: the plant injury at 125 g/ha in experiment [1] (setting [14]) worked out at 40%. Further, in experiment [1] (setting [15]), the plant injury at 500 g/ha stood at 60%. Besides, the pest or weed control at 62 g/ha in experiment [3] (setting [10]) is 0%. The pest or weed control at 125 g/ha in experiment [3] (setting [11]) worked out at 0%. In addition, the pest or weed control at 250 g/ha in experiment [3] (setting [12]) came to 15%. Moreover, the pest or weed control at 500 g/ha in experiment [3] (setting [13]) was found to be 40%.
`CCn1nc(C(C)(C)C)cc1C(=O)Nc1cc(C(=O)OC)ccn1` [Compound 151, methyl 2-[[[3-(1,1-dimethylethyl)-1-ethyl-1H-pyrazol-5-yl]carbonyl]amino]-4-pyridinecarboxylate]: the plant injury at 500 g/ha in experiment [1] (500 g ai/ha, visual rating 0-100, 0 no effect, 100 complete control, read-out: Plant response rating, Rice) turned out to be 0%. Further, the plant injury at 125 g/ha in experiment [1] (preemergence, 125 g ai/ha, 0 to 100 scale, 0 is no effect, 100 is complete control, read-out: Plant response rating, Rice) is 0%. In addition, the pest or weed control at 500 g/ha in experiment [2] (setting [16]) amounted to 5%; in experiment [2] (pre-emergence, Preemergence, 500 g ai/ha, visual rating, 0 to 100 scale (0 no effect, 100 complete control), read-out: Crabgrass, Large plant response rating) it was 0%. For the same compound, the values for the pest or weed control at 2000 g/ha in experiment [2] (setting [17]) and in experiment [2] (setting [18]) were 10% and 0%, respectively.
As for `CCOC(=O)c1ccc(F)c(NC(=O)c2cc(C3(C)CC3)nn2CC)c1` [Compound 296], the “Plant response rating, Rice” value in experiment [1] (setting [5]) amounted to 40. The “Barnyardgrass plant response rating” value in experiment [3] (setting [10]) was 15; in experiment [3] (setting [11]) it was 25; in experiment [3] (setting [12]) it was 50. Besides, the “Plant response rating, Barnyardgrass” value in experiment [3] (setting [13]) was determined as 65.
As to `C=CCn1nc(C(C)(C)C)cc1C(=O)Nc1cccc(C(C)=NO)c1` [Compound 117], the “Plant response rating, Rice” value in experiment [1] (setting [19]) is 20. Moreover, the “Crabgrass, Large plant response rating” value in experiment [2] (setting [6]) is 40; in experiment [2] (setting [20]), 45; in experiment [2] (setting [8]), 75. For the same compound, the “Plant response rating, Crabgrass, Large” value in experiment [2] (setting [7]) was found to be 65. Besides, the “Barnyardgrass plant response rating” value came out at 10 in experiment [3] (setting [10]), 20 in experiment [3] (setting [21]) and 50 in experiment [3] (setting [12]). Further, the “Plant response rating, Barnyardgrass” value in experiment [3] (setting [13]) was found to be 50.
